Test results taken from US11524073B2, “Anti-human ADRB3 monoclonal antibody and application thereof in disease diagnosis and treatment” (priority 2017, dated 2022).

Test system: Human glioma cells U87
Assay: Glioma treatment in nude mice
Format: in vivo
Method: Human glioma cells U87 were subcutaneously transplanted into the back of nude mice of 6 weeks old, which were used as the tumor model after tumor formation. In the experiment, the mice were divided into 4 groups with 8 mice in each group: normal control group, model control group, ADRB3 antibody treatment group, Gemcitabine and CD40 antibody combined treatment group. The ADRB3 antibody treatment group was intraperitoneally injected with 0.1 mg of ADRB3 antibody once every 5 days for a total of 6 weeks. The model control group was intraperitoneally injected with equivalent amount of normal saline.

SMILES: Nc1ccn([C@@H]2O[C@H](CO)[C@@H](O)C2(F)F)c(=O)n1 [Gemcitabine]
- metastatic lesion in the lung: some metastases are found
